{"source": "patent EP1095663B1", "about": "“Potentiated and stabilised disinfectant having bactericidal and virucidal activity” (Sogeval S.A., priority 1999, dated 2001)", "key": {"[1]": {"system": "virus de la maladie de Talfan", "experiment": "Virucidal activity of mixtures, drop of viral titre, Example 1", "assay_type": "cell-based", "details": "30 min, 20°C, eau dure à 30°f + matières organiques", "protocol": "Pour déterminer l'activité virucide de l'association susmentionnée, on a préparé différents mélanges monoperoxyphtalate de magnésium/cumène sulfonate de sodium/acide malique et on a analysé l'efficacité de ces différents mélanges sur le virus de la maladie de Talfan, ce en appliquant les conditions expérimentales qui correspondent aux exigences en matière d'homologation d'un désinfectant à usage agricole [temps de contact 30 min. - température 20°C - conditions de saleté : eau dure à 30°f + matières organiques (albumine 1 % + extrait de levure 1 %)]."}, "[2]": {"system": "Enterococcus hirae (CIP 58 55)", "details": "temps de contact 5 min, 20°C", "protocol": "(§1) Conformément à l'invention, on a vérifié l'activité bactéricide du monoperoxyphtalate de magnésium vis-à-vis de souches bactériennes fréquentes dans les élevages, à savoir les souches suivantes : Pseudomonas aeruginosa, Escherichia coli, Staphylococcus aureus et Enteroccocus hirae, ce en appliquant les conditions expérimentales qui répondent aux exigences d'homologation d'un désinfectant à usage agricole qui sont définies par la norme NF-T 72-301 (temps de contact 5 min. température 20°C, conditions de saleté : eau dure à 30°f, matière organique = albumine 1 % + extraits de levures 1 %).\n(§2) Il est à noter que conformément aux exigences en matière d'homologation (norme NF-T 72-171) une substance est considérée comme active à une concentration d'emploi donnée lorsqu'elle permet de réduire le titre bactérien d'au moins 10^5, soit 5 Log."}, "[3]": {"system": "Escherichia coli (CIP 53 154)", "details": "temps de contact 5 min, 20°C, conditions de saleté", "protocol": "as §1, §2"}, "[4]": {"system": "Pseudomonas aeruginosa (CIP A22)", "details": "temps de contact 5 min, 20°C, conditions de saleté", "protocol": "as §1, §2"}, "[5]": {"system": "Staphylococcus aureus (CIP 53 154)", "details": "temps de contact 5 min, 20°C", "protocol": "as §1, §2"}, "[6]": {"system": "Pseudomonas aeruginosa, Escherichia coli, Staphylococcus aureus et Enteroccocus hirae", "experiment": "Bactericidal activity on all four tested strains (summary)", "assay_type": "cell-based", "details": "conditions requises (NF-T 72-301)", "protocol": "as §1, §2"}, "[7]": {"system": "Enteroccocus hirae (CIP 58 55)", "protocol": "(§3) On a analysé l'activité bactéricide des produits testés sur les deux souches bactériennes Pseudomonas aeruginosa (CIP A 22) et Enteroccocus hirae (CIP 58 55).\n(§4) On a ainsi déterminé les concentrations minimales bactéricides (CMB), d'une part, de monoperoxyphtalate de magnésium (MMPP) et de mélange Ml seul et, d'autre part, de leur association, ce dans des solutions d'eau distillée, d'eau dure à 30°f et dans les conditions de saleté prévues par les normes correspondant aux exigences en matière d'homologation d'un désinfectant à usage agricole (matières organiques : albumine 1 % + extrait de levures 1 %)."}, "[8]": {"system": "Pseudomonas aeruginosa (CIP A 22)", "protocol": "as §3, §4"}, "[9]": {"system": "virus de la maladie de Talfan", "source_text": "Selon les normes en vigueur, une substance est considérée comme virucide lorsqu'elle permet de réduire le titre viral d'au moins 10^3, c'est-à-dire de 3 Log.\nCe test a été effectué sur le virus de la maladie de Talfan (enterovirus non enveloppé, à ARN)."}, "[10]": {"details": "20°C; cited from earlier work"}, "rat [11]": {"system": "rat", "details": "Toxicité aiguë par voie orale; cited from earlier work"}, "lapin": {"system": "lapin", "details": "Toxicité aiguë par voie dermique; cited from earlier work"}, "rat [12]": {"system": "rat", "details": "Toxicité aiguë par inhalation; cited from earlier work"}, "rats de laboratoire": {"system": "rats de laboratoire", "details": "Toxicité moyenne; cited from earlier work"}, "[13]": {"details": "test de AMES; cited from earlier work"}, "truite arc en ciel": {"system": "truite arc en ciel", "details": "cited from earlier work"}, "[14]": {"details": "conditions de saleté (eau dure à 30°f, albumine 1 % + extraits de levures 1 %)"}}, "note": "Read-outs that look alike come from different tables or passages of the source."}
{"smiles": "O=C(O)CC(O)C(=O)O", "note": "(stereo not drawn) [Ac. Malique, acide malique]", "values": [{"measurement": "Chute du titre viral (exprimé en Log)", "setting": "[1]; Ac. Malique 3000 ppm", "value": "0,33 Log"}]}
{"smiles": "CC(C)c1ccc(S(=O)(=O)[O-])cc1.[Na+]", "note": "[Cumène sulfonate de sodium, cumène sulfonate de sodium]", "values": [{"measurement": "Chute du titre viral (exprimé en Log)", "setting": "[1]; Cumène sulfonate de sodium 1500 ppm", "value": 0, "unit": "Log"}]}
{"smiles": "O=C(O)c1ccccc1C(=O)OO", "note": "[monoperoxyphtalate de magnésium]", "values": [{"measurement": "Equivalence Avox", "setting": "[2]; conditions de saleté", "value": "≥ 300", "unit": "ppm"}, {"measurement": "Concentration active en monoperoxyphtalate de magnésium (réduction > 10^5 Log)", "setting": "[2]; [14]", "value": "≥ 5 000 ppm"}, {"measurement": "Equivalence Avox", "setting": "[3]", "value": "≥ 150", "unit": "ppm"}, {"measurement": "Equivalence Avox", "setting": "[4]", "value": "≥ 300", "unit": "ppm"}, {"measurement": "Equivalence Avox", "setting": "[5]; conditions de saleté", "value": "≥ 450", "unit": "ppm"}, {"measurement": "Concentration active en monoperoxyphtalate de magnésium (réduction > 10^5 Log)", "setting": "[5]; [14]", "value": "≥ 7 500 ppm"}, {"measurement": "concentration efficace sur les souches testées", "setting": "[6]", "value": "7 500 ppm"}, {"measurement": "concentration efficace sur les souches testées, en oxygène libre", "setting": "[6]; oxygène libre", "value": 450, "unit": "ppm"}, {"measurement": "concentrations minimales bactéricides (CMB)", "setting": "[7]; Eau distillée", "value": 800, "unit": "ppm"}, {"measurement": "concentrations minimales bactéricides (CMB)", "setting": "[7]; Eau dure 30°F", "value": 800, "unit": "ppm"}, {"measurement": "concentrations minimales bactéricides (CMB)", "setting": "[8]; Eau distillée", "value": 800, "unit": "ppm"}, {"measurement": "concentrations minimales bactéricides (CMB)", "setting": "[8]; Eau dure 30°F", "value": 800, "unit": "ppm"}, {"measurement": "Chute du titre viral (exprimé en Log)", "setting": "[1]; MMPP 1000 ppm", "value": "2,6 Log"}, {"measurement": "Chute du titre viral (exprimé en Log)", "setting": "[1]; MMPP 1500 ppm", "value": "3,7 Log"}, {"measurement": "concentration à partir de laquelle activité virucide", "setting": "[9]", "value": "≥ 1 500 ppm"}, {"measurement": "soluble en milieu aqueux", "setting": "[10]", "value": 80, "unit": "g/L"}, {"measurement": "LD50 (voie orale, rat)", "setting": "rat [11]", "value": 2300, "unit": "MG/kg de poids vif"}, {"measurement": "LD50 (voie dermique, lapin)", "setting": "lapin", "value": 2000, "unit": "mg/kg de poids vif"}, {"measurement": "LD50 (voie nasale, rat)", "setting": "rat [12]", "value": "0,84 mg/l"}, {"measurement": "Effets toxiques (alimentation de rats de laboratoire pendant 90 jours)", "setting": "rats de laboratoire", "value": "> 620", "unit": "mg/kg de poids vif"}, {"measurement": "Propriétés Mutagenes", "setting": "[13]", "value": "Non mutagène selon le test de AMES (norme n° ...)"}, {"measurement": "LC50 (7 jours, truite arc en ciel)", "setting": "truite arc en ciel", "value": "38,5 mg :l"}]}
